Reference: ChEMBL document CHEMBL1125891, “Synthesis, molecular modeling studies, and muscarinic receptor activity of azaprophen analogues” (J Med Chem, 1991)
Several values for one entry are separate records, joined by “and”; a condition that tells them apart may be missing. Identical values can stand only once.

What was measured:
[1] = target: Muscarinic acetylcholine receptor; experiment: Inhibition of methacholine induced phasic contraction of guinea pig ileum; format: functional, tissue-based, Cavia porcellus
[2] = target: T1, Muscarinic acetylcholine receptor M3 (Rattus norvegicus, UniProt P08483); experiment: Binding activity against rat muscarinic acetylcholine receptor M3 using [3H]QNB as the radioligand
[3] = target: T2, Muscarinic acetylcholine receptor M1 (Rattus norvegicus, UniProt P08482); experiment: Binding activity against rat muscarinic acetylcholine receptor M1 using [3H]QNB as the radioligand
T2 sequence (P08482 whole entry): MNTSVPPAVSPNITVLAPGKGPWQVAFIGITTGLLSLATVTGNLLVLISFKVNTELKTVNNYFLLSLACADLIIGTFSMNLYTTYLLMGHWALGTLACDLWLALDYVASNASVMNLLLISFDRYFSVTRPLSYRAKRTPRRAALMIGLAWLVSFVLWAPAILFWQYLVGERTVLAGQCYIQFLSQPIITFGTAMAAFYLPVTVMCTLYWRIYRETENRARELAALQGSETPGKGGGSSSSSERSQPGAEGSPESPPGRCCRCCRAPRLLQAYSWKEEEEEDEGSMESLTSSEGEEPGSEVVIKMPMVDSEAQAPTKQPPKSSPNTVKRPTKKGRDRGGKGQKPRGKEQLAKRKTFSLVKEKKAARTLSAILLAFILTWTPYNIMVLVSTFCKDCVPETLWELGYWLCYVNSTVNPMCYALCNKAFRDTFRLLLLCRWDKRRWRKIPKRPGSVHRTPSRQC

[4] = target: Muscarinic acetylcholine receptor; experiment: Inhibition of [3H]QNB binding against muscarinic acetylcholine receptor in guinea pig ileum; format: tissue-based, Cavia porcellus
[5] = target: Muscarinic acetylcholine receptor; experiment: Inhibition of [3H]pirenzepine binding against muscarinic acetylcholine receptor in rat brain.; format: tissue-based
[6] = target: Muscarinic acetylcholine receptor; experiment: Inhibition of [3H]QNB binding against muscarinic acetylcholine receptor in rat heart.
Cavia porcellus [7] = species on record: Cavia porcellus; experiment: Inhibition against methacholine induced phasic contraction in guinea pig ileum; format: functional; conditions: read-out: pA2 (converted)
Cavia porcellus [8] = species on record: Cavia porcellus; experiment: The compound was tested for inhibition against methacholine induced tonic contraction in guinea pig ileum; format: functional; conditions: read-out: pA2 (converted)
Cavia porcellus [9] = species on record: Cavia porcellus; experiment: Inhibition of methacholine induced tonic contraction of guinea pig ileum; format: functional
[10] = target: Muscarinic acetylcholine receptor
Description: Inhibition of [3H]QNB binding against muscarinic acetylcholine receptor in rat brain.

[11] = target: T2, Muscarinic acetylcholine receptor M1; experiment: The compound was tested for binding activity against muscarinic acetylcholine receptor M1, using [3H]QNB as the radioligand.
[12] = target: T1, Muscarinic acetylcholine receptor M3; experiment: The compound was tested for binding activity against muscarinic acetylcholine receptor M3, using [3H]-QNB as the radioligand.
[13] = target: Muscarinic acetylcholine receptor; remark: listed apart in the source
Description: Inhibition of [3H]OXO-M binding against muscarinic acetylcholine receptor in rat brain membranes

[14] = target: Muscarinic acetylcholine receptor; experiment: The compound was tested for inhibition of [3H]OXO-M binding against muscarinic acetylcholine receptor in rat brain membranes; format: cell membranes
Cavia porcellus [15] = species on record: Cavia porcellus; experiment: The compound was tested for inhibition against methacholine induced tonic contraction in guinea pig ileum.; format: functional; conditions: read-out: pA2 (converted)
Cavia porcellus [16] = species on record: Cavia porcellus; experiment: The compound was tested for inhibition against tonic contraction in guinea pig ileum.; format: functional; conditions: read-out: pA2 (converted)

T1 sequence (P08483 whole entry): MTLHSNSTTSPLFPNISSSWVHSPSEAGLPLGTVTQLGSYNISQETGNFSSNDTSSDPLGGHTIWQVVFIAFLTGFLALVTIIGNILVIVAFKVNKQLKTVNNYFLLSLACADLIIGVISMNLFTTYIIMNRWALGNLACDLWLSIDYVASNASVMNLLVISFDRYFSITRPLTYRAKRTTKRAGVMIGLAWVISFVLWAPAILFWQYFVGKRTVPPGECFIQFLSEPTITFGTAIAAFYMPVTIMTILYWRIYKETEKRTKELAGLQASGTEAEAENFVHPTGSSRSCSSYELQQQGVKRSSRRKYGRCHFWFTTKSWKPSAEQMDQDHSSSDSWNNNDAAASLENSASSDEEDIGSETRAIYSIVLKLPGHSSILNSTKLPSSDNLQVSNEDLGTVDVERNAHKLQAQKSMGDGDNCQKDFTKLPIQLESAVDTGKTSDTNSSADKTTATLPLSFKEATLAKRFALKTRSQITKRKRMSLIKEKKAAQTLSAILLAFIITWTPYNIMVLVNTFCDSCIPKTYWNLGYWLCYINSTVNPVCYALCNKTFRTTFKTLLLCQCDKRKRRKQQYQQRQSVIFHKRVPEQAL

CN1CC2CC1C[C@H](OC(=O)C(C)(c1ccccc1)c1ccccc1)C2 (some centres not stated)
-Log Kd [1]: 8.44 | Ki [2]: 9.28 nM | Ki [3]: 2.94 nM | Ki [4]: 9.64 nM | Ki [5]: 12.7 nM | Ki [6]: 12.9 nM | Kb (Cavia porcellus [7]): 1.86 nM | Kb (Cavia porcellus [8]): 1.91 nM | -Log Kd (Cavia porcellus [9]): 8.75 | Ki [10]: 4.2 nM

CN1CC2CC1C[C@@H](OC(=O)C(C)(c1ccccc1)c1ccccc1)C2 (single isomer, unassigned; (+))
Ki [11]: 0.0383 nM | Ki [12]: 0.0986 nM | Ki [4]: 0.054 nM | Ki [10]: 0.0297 nM

CC(=O)O[C@@H]1C[C@@H]2C[C@H](C1)N([C@H](C)c1ccccc1)C2 (stereo in doubt; 12)
Ki [2]: 29900 nM | Ki [3]: 23100 nM | Ki [4]: 12900 nM | Ki [10]: 19100 nM | Ki [13]: 23300 nM

CC(=O)O[C@@H]1C[C@@H]2C[C@H](C1)N([C@H](C)c1ccccc1)C2 (stereo in doubt; 13)
Ki [2]: 4280 nM | Ki [3]: 9180 nM | Ki [4]: 3750 nM | Ki [10]: 4710 nM | Ki [13]: 4150 nM

CN1CC2CC1C[C@@H](OC(=O)C(c1ccccc1)c1ccccc1)C2 (some centres not stated)
-Log Kd [1]: 8.45 | Ki [2]: 4.3 nM | Ki [3]: 1.23 nM | Ki [4]: 8.21 nM | Ki [5]: 2.87 nM | Ki [6]: 5.49 nM | Kb (Cavia porcellus [7]): 1.74 nM | Kb (Cavia porcellus [8]): 1.86 nM | Ki [10]: 1.89 nM

CC(=O)O[C@@H]1CC2CC(C1)N(C)C2 (stereo in doubt; 9)
Ki [2]: 14100 nM | Ki [3]: 8620 nM | Ki [4]: 11900 nM | Ki [5]: 12500 nM | Ki [10]: 8550 nM | Ki [13]: 7820 nM

CC(=O)O[C@H]1CC2CC(C1)N(C(C)c1ccccc1)C2 (some centres not stated)
Ki [2]: 3380 nM | Ki [3]: 2770 nM | Ki [4]: 4570 nM | Ki [10]: 3530 nM | Ki [13]: 113 nM

CC(=O)O[C@@H]1CC2CC(C1)N(C)C2 (single isomer, unassigned; (-))
Ki [2]: 46700 nM | Ki [3]: 22100 nM | Ki [4]: 38100 nM | Ki [10]: 23000 nM | Ki [13]: 33900 nM

CC(=O)O[C@@H]1CC2CC(C1)N(C)C2 (single isomer, unassigned; (+))
Ki [2]: 11300 nM | Ki [3]: 7110 nM | Ki [4]: 10400 nM | Ki [10]: 6470 nM | Ki [13]: 10400 nM

CN1CC2CC1C[C@@H](OC(=O)C(C)(c1ccccc1)c1ccccc1)C2 (stereo in doubt; 1)
-Log Kd [1]: 10.46 | Ki [2]: 0.472 nM | Ki [3]: 0.0881 nM | Ki [4]: 0.279 nM | Ki [5]: 0.118 nM | Ki [6]: 0.196 nM | Kb (Cavia porcellus [7]): 0.0741 nM | Ki [10]: 0.13 nM

CN1CC2CC1C[C@H](OC(=O)C(c1ccccc1)c1ccccc1)C2 (some centres not stated)
-Log Kd [1]: 8.27 and 8.32 | Ki [2]: 11.2 nM | Ki [3]: 4.75 nM | Ki [4]: 19.1 nM | Ki [5]: 5.73 nM | Ki [6]: 16.9 nM | Kb (Cavia porcellus [7]): 1.55 nM | Kb (Cavia porcellus [8]): 1.82 nM | Ki [10]: 4.07 nM

CN1CC2CC1C[C@@H](OC(=O)C(C)(c1ccccc1)c1ccccc1)C2 (single isomer, unassigned; (-))
Ki [2]: 10.7 nM | Ki [3]: 7.89 nM | Ki [4]: 14.5 nM | Ki [10]: 6.36 nM

CC(=O)O[C@H]1CC2CC(C1)N(C)C2 (single isomer, unassigned; (+))
Ki [2]: 19700 nM | Ki [3]: 13900 nM | Ki [4]: 21000 nM | Ki [14]: 2170 nM | Ki [10]: 8560 nM

CC(=O)O[C@H]1CC2CC(C1)N(C)C2 (stereo in doubt; 8)
Ki [2]: 8990 nM | Ki [3]: 9200 nM | Ki [4]: 8400 nM | Ki [5]: 9810 nM | Ki [10]: 7530 nM | Ki [13]: 1150 nM

CC(=O)O[C@H]1CC2CC(C1)N(C)C2 (single isomer, unassigned; (-))
Ki [2]: 4970 nM | Ki [3]: 7210 nM | Ki [4]: 4190 nM | Ki [10]: 3730 nM | Ki [13]: 6550 nM

CC(=O)O[C@H]1CC2CC(C1)N([C@H](C)c1ccccc1)C2 (some centres not stated)
Ki [2]: 14900 nM | Ki [3]: 12800 nM | Ki [4]: 7700 nM | Ki [10]: 10100 nM | Ki [13]: 1950 nM

CC(C(=O)O[C@H]1CC2CC(C1)N(Cc1ccccc1)C2)(c1ccccc1)c1ccccc1 (some centres not stated)
-Log Kd [1]: 8.04 | Ki [2]: 12.5 nM | Ki [3]: 10.9 nM | Ki [4]: 12.8 nM | Ki [5]: 27.9 nM | Ki [6]: 9.28 nM | Kb (Cavia porcellus [7]): 6.17 nM | Kb (Cavia porcellus [15]): 5.62 nM | Kb (Cavia porcellus [16]): 5.62 nM | -Log Kd (Cavia porcellus [9]): 8.03 | Ki [10]: 9.53 nM
